Results published in patent US20070183976A1, “Composition for ultrasound therapy and pharmaceutical liquid composition containing the same” (IMARX THERAPEUTICS, INC., priority 2006, published 2007).

Tested on: artificial thrombosis
Experiment: Fibrinolysis of artificial thrombosis (Chandler's method) with ultrasonic catheter
Format: biochemical, human
Conditions: average of two tests; for time for achieving 20% fibrinolysis: FIG. 4, blood from one person
Method: An artificial thrombosis was formed by Chandler's method. A sample of blood (1 ml) collected from a healthy person was entered into a flexible tube (inside diameter 3 mm, length 265 mm) and calcium chloride was added. The tube was shaped like a loop and was rotated at 12 r.p.m. for 20 minutes to give an artificial thrombosis model.
A ceramic ultrasonic element (width 2 mm, length 5 mm, thickness 1 mm) was inserted into the tip of a catheter (diameter 2 mm), and an oscillating element was connected to an oscillator provided outside with a fine connector passed through the catheter. A fine tube for pouring a test solution was provided at an opening opposite to the opening of the catheter end.
The artificial thrombosis prepared as described above was added to a test tube together with blood, and the ultrasonic catheter was inserted into the test tube so that the end of the catheter was set close to the portion of the artificial thrombosis (at a distance of about 5 mm). To the test tube was added a mixture of urokinase and a booster prepared as in Example 1 at a rate of 1 ml per minute, wherein urokinase (concentration 1200 Ill/ml) and the booster were mixed immediately before pouring at a mixing ratio of 1:1 by mass. The mixture was refluxed while keeping the volume of the test solution at a constant level by removing excess volume of the solution by suction.
The mixture was exposed to the ultrasound at a frequency of 170 KHz to by a pulse method (exposure for 2 seconds followed by termination of exposure for 4 seconds) for 2 minutes. Total exposure time was 40 seconds). After the exposure, the ultrasonic catheter was removed from the test tube, and the mixture was incubated at 37° C. for between 5 and 120 minutes, washed with a physiological saline solution several times and dried overnight. Thereafter, the dried mixture was weighed. […]
The rate of fibrinolysis was calculated by the following equation: Fibrinolysis rate (%)=(A−B)/A×100, wherein • A is the weight of thrombosis in control; and • B is the weight of thrombosis treated. […]

urokinase was tested, and the “time for achieving 20% fibrinolysis” value (with exposure of ultrasound 170 KHz pulsed, 40 s total) was 30 min, the “time for achieving 20% fibrinolysis” value (without exposure of ultrasound, urokinase 1200 IU/ml) was “about 45 minutes” and the “treatment time at which 50% fibrinolysis was achieved” value (FIG. 5, with exposure of ultrasound, energy reduced by 15%, blood from another person) was 60 min.
